Experiment [1] concerns the target T1, ΔF508-CFTR (Homo sapiens, UniProt P13569, DEL508-508).
T1 construct: host or cells: CFBE41o-, doxycycline-inducible
Description: CFTR cell surface levels using HRP-tagged ΔF508-CFTR expressing CFBE cells, in the presence of a co-corrector. It is filed as cell-based. The following applies: HRP-tagged ΔF508-CFTR expressing CFBE cells, in the presence of 3 μM co-corrector; for pEC50: read-out: EC50. The procedure, abridged:
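Cells were seeded with 0.5 μg/mL doxycycline and held 68 h at 37 °C. Test compounds plus 3 μM co-corrector (final 0.1% DMSO) were then added for 20 h at 33 °C. Washed cells received HRP substrate, and luminescence was normalized between DMSO and 3 μM co-corrector controls.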

In experiment [2] the target is T1, ΔF508-CFTR. Description: CFTR cell surface levels using HRP-tagged ΔF508-CFTR expressing CFBE cells, intrinsic corrector capacity. It counts as cell-based. The following applies: for pEC50: read-out: EC50. The procedure, abridged: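 Here the cells express ΔF508-CFTR with horseradish peroxidase inserted in extracellular loop 4, so only rescued channel at the surface gives luminescent signal. Compounds act on their own, 20 h at the reduced temperature of 33 °C; values are percent activity relative to DMSO and a 3 μM corrector.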

[3] abbreviates: HRP-tagged ΔF508-CFTR CFBE41o- cells, compounds alone (intrinsic corrector capacity), 20 hours at 33° C., positive control 3 μM corrector.
[4] abbreviates: HRP-tagged ΔF508-CFTR CFBE41o- cells, compounds alone (intrinsic corrector capacity), 20 hours at 33° C.
[5] abbreviates: HRP-tagged ΔF508-CFTR expressing CFBE cells, intrinsic corrector capacity (no co-corrector), 33° C., 20 hours.

This is an account of results in US9796711B2, “Substituted pyrazolo[3,4-b]pyridin-6-carboxylic acids and method of use” (AbbVie S.àr.l., priority 2015, dated 2017).

Broadly, the pEC50 is the EC50 on a negative log10 scale, so that one unit is a factor of ten.

Molecules are shown by their SMILES. pEC50: −log10 of the molar value.

T1 sequence (P13569 with tags, fused parts or gaps DEL508-508): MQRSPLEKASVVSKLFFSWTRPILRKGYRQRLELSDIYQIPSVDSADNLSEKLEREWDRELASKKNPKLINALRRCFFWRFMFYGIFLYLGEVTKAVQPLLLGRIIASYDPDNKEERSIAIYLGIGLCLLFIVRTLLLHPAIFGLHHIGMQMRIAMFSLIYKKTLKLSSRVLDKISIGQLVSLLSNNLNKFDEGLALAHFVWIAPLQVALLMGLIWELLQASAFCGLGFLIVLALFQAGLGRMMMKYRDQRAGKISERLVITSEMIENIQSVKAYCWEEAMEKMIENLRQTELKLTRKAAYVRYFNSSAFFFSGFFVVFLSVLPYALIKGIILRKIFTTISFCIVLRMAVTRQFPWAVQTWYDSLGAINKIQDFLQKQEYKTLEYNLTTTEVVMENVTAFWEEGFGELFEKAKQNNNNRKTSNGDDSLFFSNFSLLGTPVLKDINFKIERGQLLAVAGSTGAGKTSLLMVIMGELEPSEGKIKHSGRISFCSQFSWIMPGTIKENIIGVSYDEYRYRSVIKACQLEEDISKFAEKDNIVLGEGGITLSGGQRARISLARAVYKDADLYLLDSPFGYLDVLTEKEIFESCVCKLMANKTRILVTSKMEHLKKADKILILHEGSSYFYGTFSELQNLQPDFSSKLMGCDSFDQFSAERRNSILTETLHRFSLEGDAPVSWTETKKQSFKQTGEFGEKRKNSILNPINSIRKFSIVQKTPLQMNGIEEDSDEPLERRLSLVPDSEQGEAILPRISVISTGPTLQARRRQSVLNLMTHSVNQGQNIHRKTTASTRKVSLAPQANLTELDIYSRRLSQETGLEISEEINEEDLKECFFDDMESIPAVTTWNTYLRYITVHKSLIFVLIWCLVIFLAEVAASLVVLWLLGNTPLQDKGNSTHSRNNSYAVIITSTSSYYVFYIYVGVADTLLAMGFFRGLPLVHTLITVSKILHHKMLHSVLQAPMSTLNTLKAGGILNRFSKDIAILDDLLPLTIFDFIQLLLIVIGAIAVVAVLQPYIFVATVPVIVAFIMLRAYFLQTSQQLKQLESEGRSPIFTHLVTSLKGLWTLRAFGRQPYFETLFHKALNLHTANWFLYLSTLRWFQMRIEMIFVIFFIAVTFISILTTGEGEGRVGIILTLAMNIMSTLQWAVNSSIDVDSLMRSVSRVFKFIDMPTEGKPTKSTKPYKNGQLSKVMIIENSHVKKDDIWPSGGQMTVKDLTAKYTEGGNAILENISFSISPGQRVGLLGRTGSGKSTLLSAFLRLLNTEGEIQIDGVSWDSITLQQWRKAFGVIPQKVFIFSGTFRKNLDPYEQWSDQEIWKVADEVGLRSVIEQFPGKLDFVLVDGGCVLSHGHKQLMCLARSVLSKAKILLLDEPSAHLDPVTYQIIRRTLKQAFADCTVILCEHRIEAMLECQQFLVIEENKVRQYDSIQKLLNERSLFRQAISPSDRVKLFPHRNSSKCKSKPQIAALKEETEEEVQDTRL

With `N#CCN1CC(c2nn(-c3ccccc3)c3nc(C(=O)O)cc(-c4ccc(N5CCOCC5)cc4)c23)C1` [compound 148, 3-[1-(cyanomethyl)azetidin-3-yl]-4-[4-(morpholin-4-yl)phenyl]-1-phenyl-1H-pyrazolo[3,4-b]pyridine-6-carboxylic acid], the “% Activation” value was 238.75% in experiment [1] and 79.64% in experiment [2] (setting [3]). Moreover, the pEC50 in experiment [1] and in experiment [2] (setting [4]) was 5.48 each time.
In the case of `COCC1(C)CN(c2cc(C(=O)O)nc3c2c(C)nn3-c2ccccc2)C1` [compound 289, 4-[3-(methoxymethyl)-3-methylazetidin-1-yl]-3-methyl-1-phenyl-1H-pyrazolo[3,4-b]pyridine-6-carboxylic acid], the “% Activation” value worked out at 172.8% in experiment [1] and 46.35% in experiment [2] (setting [3]). In addition, the pEC50 in experiment [1] was 5.74; in experiment [2] (setting [4]), 5.60.
In the case of `CC1CN(c2cc(C(=O)O)nc3c2c(C2CCC2)nn3-c2ccccc2)C1` [compound 440, 3-cyclobutyl-4-(3-methylazetidin-1-yl)-1-phenyl-1H-pyrazolo[3,4-b]pyridine-6-carboxylic acid], the “% Activation” value is on record as 308.95% in experiment [1] and 104.7% in experiment [2] (setting [5]). Moreover, the values for the pEC50 in experiment [1] and in experiment [2] (setting [5]) were 5.71 and 5.72, respectively.
Regarding `CC(C)c1nn(C2CCOC2)c2nc(C(=O)O)cc(-c3ccc(N4CCOCC4)cc3)c12` (stereo not drawn) [compound 120, 4-[4-(morpholin-4-yl)phenyl]-1-(oxolan-3-yl)-3-(propan-2-yl)-1H-pyrazolo[3,4-b]pyridine-6-carboxylic acid], the “% Activation” value in experiment [1] is given as 231.45%; in experiment [2] (setting [3]) it was 70.235%. Moreover, the pEC50 in experiment [1] is 5.50; in experiment [2] (setting [4]), 5.48.
In the same order, the values of `CC(C)c1nn(-c2cccc(F)c2)c2nc(C(=O)O)cc(-c3cnc(N(C)C4CCOCC4)nc3)c12` [compound 316, 1-(3-fluorophenyl)-4-{2-[methyl(oxan-4-yl)amino]pyrimidin-5-yl}-3-(propan-2-yl)-1H-pyrazolo[3,4-b]pyridine-6-carboxylic acid] are 435.6%, 218.87%, 6.51 and 6.25.
In the same order, the values of `Cc1nn(-c2ccccc2)c2nc(C(=O)O)cc(OCC(=O)N3CCCCC3)c12` [compound 383, 3-methyl-4-[2-oxo-2-(piperidin-1-yl)ethoxy]-1-phenyl-1H-pyrazolo[3,4-b]pyridine-6-carboxylic acid] are 129.7%, 16.587%, 5.30 and 5.30.
`O=C(O)c1cc(N2CCC(N3CCOCC3)CC2)c2c(C3CCC3)nn(-c3ccc(OC(F)(F)F)cc3)c2n1` [compound 909, 3-cyclobutyl-4-[4-(morpholin-4-yl)piperidin-1-yl]-1-[4-(trifluoromethoxy)phenyl]-1H-pyrazolo[3,4-b]pyridine-6-carboxylic acid]: in experiment [1], the “% Activation” value turned out to be 498.4% and the pEC50 is 7.25. For the same compound, in experiment [2] (setting [5]), the “% Activation” value came out at 277.7% and the pEC50 is 6.87.
For `CC(C)c1nn(-c2cccc(N(C)C)c2)c2nc(C(=O)O)cc(-c3ccc(N(C)C4CCOCC4)cc3)c12` [compound 207, 1-[3-(dimethylamino)phenyl]-4-{4-[methyl(oxan-4-yl)amino]phenyl}-3-(propan-2-yl)-1H-pyrazolo[3,4-b]pyridine-6-carboxylic acid], the results for the “% Activation” value in experiment [1] and in experiment [2] (setting [3]) were 674.35% and 384.15%, respectively. For the same compound, the pEC50 in experiment [1] was 6.42; in experiment [2] (setting [4]) it was 6.24.
Take `O=C(O)c1cc(N2CC[C@@H](O)[C@H](F)C2)c2c(C3CCC3)nn(-c3ccccc3)c2n1` [compound 464, 3-cyclobutyl-4-[(3R,4R)-3-fluoro-4-hydroxypiperidin-1-yl]-1-phenyl-1H-pyrazolo[3,4-b]pyridine-6-carboxylic acid]: in experiment [1], the “% Activation” value amounted to 328.25% and the pEC50 is 6.39. In experiment [2] (setting [5]), the “% Activation” value turned out to be 163.6% and the pEC50 is 5.94.
